From ChEMBL document CHEMBL5365417, “The development of diphenyleneiodonium analogs as GPR3 agonists” (Bioorg Med Chem Lett, 2023)

Columns and labels:
[1] = molecular target: T1, G-protein coupled receptor 3 (Homo sapiens, UniProt P46089); experiment: Agonist activity at human GPR3 expressed in HEK293 cells assessed as increase in cAMP accumulation incubated for 30 mins by HTRF assay; type: functional, cell-based
[2] = molecular target: T1, G-protein coupled receptor 3; experiment: Agonist activity at human GPR3 expressed in HEK293 cells assessed as increase in cAMP accumulation at 1 uM incubated for 30 mins by AlphaScreen assay relative to control; type: functional, cell-based

T1 sequence (P46089 whole entry): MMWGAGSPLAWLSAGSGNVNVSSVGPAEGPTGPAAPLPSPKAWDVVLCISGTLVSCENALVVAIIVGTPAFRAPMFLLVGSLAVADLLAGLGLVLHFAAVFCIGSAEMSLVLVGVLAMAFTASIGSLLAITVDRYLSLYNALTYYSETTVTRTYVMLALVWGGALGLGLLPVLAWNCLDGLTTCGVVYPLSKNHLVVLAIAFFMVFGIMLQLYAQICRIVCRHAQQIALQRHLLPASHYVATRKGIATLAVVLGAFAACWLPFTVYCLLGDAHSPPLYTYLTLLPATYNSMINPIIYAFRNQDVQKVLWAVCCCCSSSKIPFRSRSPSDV

SMILES | EC50 [1] [µM] | Activity [2] [%]
CC(C)(C)[S+]([O-])N=C1c2ccccc2-c2ccccc21 (stereo not given) | 66 | 
O=CNC1c2ccccc2-c2ccccc21 | 158 | 
CC1(N)c2ccccc2-c2ccccc21 | > 100 | 
Cn1c2ccccc2c2ccccc21 | 40 | 
FC1(F)Oc2cc3c(cc2O1)-c1ccccc1[I+]3 | 19.3 | 
CN(C)C1(C)c2ccccc2-c2ccccc21 | > 100 | 
c1ccc2c(c1)cnc1ccccc12 [PHENANTHRIDINE] | 67 | 
C[n+]1cc2ccccc2c2ccccc21 | 382 | 
O=S1(=O)c2ccccc2-c2ccccc21 | 5.1 | 
NC1c2ccccc2-c2ccccc21 | > 100 | 
c1ccc2c(c1)sc1ccccc12 [DIBENZOTHIOPHENE] | 81 | 
CCCCCCCCCCCCC/C=C/[C@@H](O)[C@@H](N)COP(=O)(O)O |  | 20
c1ccc2c(c1)[nH]c1ccccc12 [CARBAZOLE] | 7.6 | 
CN(C)C1c2ccccc2-c2ccccc21 | 21 | 
O=c1[nH]c2ccccc2c2ccccc12 | 45 | 
C[N+]1(C)c2ccccc2-c2ccccc21 | 114 | 
Fc1ccc2c(c1)oc1ccccc12 | 105 | 
O=[N+]([O-])c1ccc2c(c1)[I+]c1ccccc1-2 | 1.34 | 
Cc1nc2ccccc2c2ccccc12 | 86 | 
CC1c2ccccc2-c2ccccc2N1C (stereo not given) | 60 | 
